Experimental findings from patent US20250188030A1, “Biphenyl and Phenylpyridine Compounds” (Pfizer Inc., priority 2023, published 2025) are described below.

Entries after “also recorded” stand apart in the source; their conditions may differ. Read-outs that look alike come from different tables or passages of the source.

The target of one data set is KAT2B (Homo sapiens (Human), UniProt Q92831). As to the kind of experiment: KAT2B acetyltransferase biochemical assay (RapidFire mass spectrometry, AcCoA to CoA).
KAT2B, sequence (Q92831 2-832): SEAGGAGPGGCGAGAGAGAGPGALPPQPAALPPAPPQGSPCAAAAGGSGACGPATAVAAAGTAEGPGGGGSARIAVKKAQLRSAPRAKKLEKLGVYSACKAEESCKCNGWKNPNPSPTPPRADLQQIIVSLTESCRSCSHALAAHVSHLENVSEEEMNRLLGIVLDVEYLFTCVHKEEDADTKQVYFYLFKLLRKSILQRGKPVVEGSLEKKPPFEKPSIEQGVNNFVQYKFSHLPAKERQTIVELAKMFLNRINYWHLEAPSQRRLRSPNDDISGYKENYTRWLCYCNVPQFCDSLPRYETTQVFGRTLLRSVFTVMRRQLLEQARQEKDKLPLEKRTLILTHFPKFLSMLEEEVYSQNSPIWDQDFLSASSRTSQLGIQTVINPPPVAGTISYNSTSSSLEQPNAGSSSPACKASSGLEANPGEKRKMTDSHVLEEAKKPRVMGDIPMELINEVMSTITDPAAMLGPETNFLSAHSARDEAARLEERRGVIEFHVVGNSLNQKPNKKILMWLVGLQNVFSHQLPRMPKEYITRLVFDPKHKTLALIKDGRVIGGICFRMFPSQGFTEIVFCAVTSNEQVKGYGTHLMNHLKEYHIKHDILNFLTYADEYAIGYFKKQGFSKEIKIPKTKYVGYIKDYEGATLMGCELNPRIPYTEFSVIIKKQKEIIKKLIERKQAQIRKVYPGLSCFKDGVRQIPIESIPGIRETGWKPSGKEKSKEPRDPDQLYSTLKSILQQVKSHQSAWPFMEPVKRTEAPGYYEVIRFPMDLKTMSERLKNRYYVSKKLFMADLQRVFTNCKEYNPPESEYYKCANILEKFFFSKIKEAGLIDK
Another data set deals with H3K9AC (HT1080 cells). Kind of data set: H3K9AC Sandwich ELISA Assay in HT1080 cells (KAT2A primary cell-based screening assay). Also noted: species or system Human. The gist of the method:
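HT1080 fibrosarcoma cells seeded 16 h, then treated 24 h at 37 °C with 10-point 1:3 compound dilutions (top 10 µM final, 0.1% DMSO). Acid lysates neutralized with butyrate/PMSF; H3K9ac measured by total-H3-capture sandwich ELISA with luminescent HRP readout, IC50 by four-parameter fit.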

The target of a further data set is KAT2A (Homo sapiens (Human), UniProt Q92830). Kind of data set: KAT2A acetyltransferase biochemical assay (RapidFire mass spectrometry, AcCoA to CoA).
KAT2A, sequence (Q92830 whole entry): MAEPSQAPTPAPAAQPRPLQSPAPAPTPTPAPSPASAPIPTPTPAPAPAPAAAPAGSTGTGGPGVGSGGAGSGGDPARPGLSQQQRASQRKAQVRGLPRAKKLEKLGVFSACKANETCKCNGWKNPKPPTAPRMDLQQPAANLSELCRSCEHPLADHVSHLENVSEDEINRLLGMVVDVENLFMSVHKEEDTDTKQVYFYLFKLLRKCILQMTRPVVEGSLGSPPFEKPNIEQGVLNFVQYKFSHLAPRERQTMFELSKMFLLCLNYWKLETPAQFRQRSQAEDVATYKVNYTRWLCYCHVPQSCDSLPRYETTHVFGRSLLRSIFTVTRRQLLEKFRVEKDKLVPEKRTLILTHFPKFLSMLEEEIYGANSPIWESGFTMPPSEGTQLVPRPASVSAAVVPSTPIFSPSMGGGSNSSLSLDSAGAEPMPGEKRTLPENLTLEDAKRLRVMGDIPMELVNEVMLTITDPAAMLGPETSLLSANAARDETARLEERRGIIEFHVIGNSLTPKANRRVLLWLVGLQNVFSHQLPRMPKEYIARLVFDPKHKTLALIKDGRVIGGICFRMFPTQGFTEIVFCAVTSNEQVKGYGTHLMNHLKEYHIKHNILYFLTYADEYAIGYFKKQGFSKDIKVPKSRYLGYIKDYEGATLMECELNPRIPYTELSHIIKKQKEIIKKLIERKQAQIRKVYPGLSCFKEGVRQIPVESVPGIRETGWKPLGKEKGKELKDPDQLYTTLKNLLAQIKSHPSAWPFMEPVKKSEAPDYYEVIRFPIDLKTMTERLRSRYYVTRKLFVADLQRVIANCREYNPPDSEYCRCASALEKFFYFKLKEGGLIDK
A further data set has as its system MM.1S cells. Kind of data set: MM1.S 10 Day Proliferation Assay (CellTiter-Glo). It is filed as cell-based, Human. The method in brief: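 MM.1S cells, 500/well in ultra-low-attachment plates, were pre-incubated 16 h, then exposed to a 10-point 1:3 dilution series (top 10 μM final, 0.1% DMSO) for 10 days at 37 °C, with compound-containing medium refreshed at day 5. Viability was read by CellTiter-Glo luminescence; IC50 came from four-parameter fit.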

A short description of data set [1]: Metabolite profile in hepatocytes, recombinant human UGT enzymes, and dog plasma and urine. The class given is in vitro ADME. The following applies: hepatocytes (mouse, dog, human), plasma and urine from dogs. The text has this:
The metabolite profile of 2-(2′-cyclobutyl-3′-fluoro-6-{[(1R,3R)-3-{[(7S)-7-fluoro-5-azaspiro[3.4]octane-7-carbonyl]amino}cyclopentyl]oxy}[1, 1′-biphenyl]-3-yl)-2-methylpropanoic acid (Example A1) assessed in hepatocytes (mouse, dog, human), recombinant human UGT enzymes, and plasma and urine from dogs.
General methods/reviews of obtaining metabolite profile and identifying metabolites of a compound are described in: DAVLIE, 0., et al., “Assessment of Three Human in Vitro Systems in the Generation of Major Human Excretory and Circulating Metabolites,” Chemical Research in Toxicology, 2009, 22(2):357-368; KING, R., “Chapter Three—Biotransformations in Drug Metabolism.” Drug Metabolism Handbook: Concepts and Applications in Cancer Research, edited by Ala F. Nassar et al., Wiley, 2022, 17-38; WU, Y., et al., “Metabolite Identification in Preclinical and Clinical Phase of Drug Development,” Current Drug Metabolism, 2021, 22(11):838-857; GODZIEN, J., et al., “Chapter Fifteen—Metabolite Annotation and Identification.” Comprehensive Analytical Chemistry, Elsevier, 2018, 415-445.

Where [2] appears, read: read-out: KAT2B Ki at 1 μM AcCoA, 1 μM AcCoA, 5 μM H3 1-21 peptide, 0.5 nM KAT2B, 90-minute reaction.
The mark [3] stands for this setting: read-out: KAT2A Ki at 1 μM AcCoA, 5 μM H3 1-21 peptide, 0.5 nM KAT2A, 90-minute reaction.
[4] abbreviates: Homo sapiens, HT-1080, H3K9AC sandwich ELISA.

`CC(C)c1c(F)cccc1-c1cc(C(C)(C)C(=O)NS(C)(=O)=O)ccc1O[C@@H]1CC[C@@H](NC(=O)[C@@]2(F)CNC3(CCC3)C2)C1` (single isomer, unassigned) [Example C19]: the Ki at KAT2B (setting [2]) worked out at 0.8 nM; at KAT2A (setting [3]), 0.12 nM. Moreover, the IC50 with H3K9AC (HT1080 cells) (H3K9AC sandwich ELISA) came to 5.06 nM; in the data set on MM.1S cells it was 66.7 nM.
Turning to `Cn1cc(-c2ccc(O[C@@H]3CC[C@@H](NC(=O)[C@]4(F)CNC5(CCC5)C4)C3)c(-c3cccc(F)c3C3CCC3)c2)c(C(C)(C)C(=O)O)n1` (single isomer, unassigned) [Example J7], the inhibition constant Ki on KAT2B (setting [2]) worked out at 0.46 nM; on KAT2A (setting [3]), 0.26 nM. The concentration for half-maximal inhibition (IC50) came to 3.88 nM with H3K9AC (HT1080 cells) (H3K9AC sandwich ELISA) and 20.6 nM in the data set on MM.1S cells (Homo sapiens, MM1.S, 240 h).
`CC(C)(C(=O)NS(C)(=O)=O)c1ccc(O[C@@H]2CC[C@@H](NC(=O)[C@]3(F)CNC4(CCC4)C3)C2)c(-c2cccc(F)c2C2CC2)c1` (single isomer, unassigned) [Example C14]: the inhibition constant Ki turned out to be 5.62 nM on KAT2B (setting [2]) and 1.41 nM at KAT2A (setting [3]). In addition, the 50% inhibitory concentration (IC50) in the data set with H3K9AC (HT1080 cells) (setting [4]) is 17.7 nM; with MM.1S cells (Homo sapiens, MM1.S, 240 h) it was 63.7 nM.
For the molecule `CN1CC(C)(C)C[C@H]1C(=O)N[C@@H]1CC[C@@H](Oc2cccc(C(=O)NS(=O)(=O)N3CC(F)C3)c2-c2cccc(F)c2C2CCC2)C1` (atropisomer, axis not shown) [Example I12, N-[(1R,3R)-3-({(1ψ)-2′-cyclobutyl-3′-fluoro-6-[(3-fluoroazetidine-1-sulfonyl)carbamoyl][1,1′-biphenyl]-2-yl}oxy)cyclopentyl]-1,4,4-trimethyl-L-prolinamide], the Ki at KAT2B (setting [2]) is 20.3 nM; on KAT2A (setting [3]), 20.6 nM. In addition, the IC50 in the data set with H3K9AC (HT1080 cells) (setting [4]) worked out at 6.43 nM; in the data set with MM.1S cells (Homo sapiens, MM1.S, 240 h), 123 nM.
With `CC1(C)CNC[C@](F)(C(=O)N[C@@H]2CC[C@@H](Oc3ccc(C(C)(C)C(=O)O)cc3-c3cccc(F)c3C3CCC3)C2)C1` (single isomer, unassigned) [Example A16], the inhibition constant (Ki) was 2.43 nM on KAT2B (setting [2]) and 1.39 nM on KAT2A (setting [3]). For the same molecule, the concentration for half-maximal inhibition (IC50) in the data set with H3K9AC (HT1080 cells) (H3K9AC sandwich ELISA) is 13.4 nM; with MM.1S cells (Homo sapiens, MM1.S, 240 h), 144 nM.
Regarding `CN1CC(C)(C)C[C@H]1C(=O)N[C@@H]1CC[C@@H](Oc2cccc(C(=O)O)c2-c2cccc(F)c2C2CCC2)C1` (atropisomer, axis not shown) [Example H3, (1ψ)-2′-cyclobutyl-3′-fluoro-6-({(1R,3R)-3-[(1,4,4-trimethyl-L-prolyl)amino]cyclopentyl}oxy)[1,1′-biphenyl]-2-carboxylic acid], the inhibition constant Ki on KAT2B (setting [2]) came to 32.9 nM; on KAT2A (setting [3]), 18.3 nM. The IC50 with H3K9AC (HT1080 cells) (setting [4]) was found to be 57.2 nM; in the data set with MM.1S cells (Homo sapiens, MM1.S, 240 h) it was 219 nM.
Take `CCS(=O)(=O)NC(=O)C(C)(C)c1ccc(O[C@@H]2CC[C@@H](NC(=O)C3(F)CNC4(CCC4)C3)C2)c(-c2cccc(F)c2C2CCC2)c1` (single isomer, unassigned) [Example B2]: the Ki at KAT2B was 0.13 nM; on KAT2A (KAT2A Ki at 1 μM AcCoA, 5 μM H3 1-21 peptide, 0.5 nM KAT2A, 90-minute reaction), 0.13 nM. For the same molecule, the concentration for half-maximal inhibition (IC50) with H3K9AC (HT1080 cells) (H3K9AC sandwich ELISA) worked out at 3.14 nM; in the data set with MM.1S cells (Homo sapiens, MM1.S, 240 h), 7.51 nM.
With `CC(C)(C(=O)NS(C)(=O)=O)c1ccc(O[C@@H]2CC[C@@H](NC(=O)[C@@]3(F)CNC4(CCCC4)C3)C2)c(-c2cccc(F)c2C2CCC2)c1` (single isomer, unassigned) [Example C4], the inhibition constant (Ki) on KAT2B (setting [2]) was 0.14 nM; on KAT2A (setting [3]) it was 0.26 nM. Besides, the IC50 was 1.25 nM in the data set with H3K9AC (HT1080 cells) (H3K9AC sandwich ELISA) and 5.49 nM in the data set on MM.1S cells.
With `CC(C)(C(=O)O)c1ccc(O[C@@H]2CC[C@@H](NC(=O)[C@@]3(F)CNC4(CCC4)C3)C2)c(-c2cccc(F)c2C2CCC2)c1` [Example A1, 2-(2′-cyclobutyl-3′-fluoro-6-{[(1R,3R)-3-{[(7S)-7-fluoro-5-azaspiro[3.4]octane-7-carbonyl]amino}cyclopentyl]oxy}[1,1′-biphenyl]-3-yl)-2-methylpropanoic acid], the additional metabolites observed result in data set [1] is reported as “CYP-mediated oxidation on the cyclobutane ring, the gem-dimethyl group and/or one or both of the biaryl rings; also recorded: direct glucose conjugate from UGT enzymes or chemical reaction”. The “most significant metabolite observed” value in data set [1] is listed as “glucuronidation of the carboxylic acid group (Acyl glucuronide)”. The inhibition constant (Ki) was 2.65 nM at KAT2B (setting [2]) and 0.47 nM at KAT2A (setting [3]). Besides, the IC50 in the data set on H3K9AC (HT1080 cells) (setting [4]) is 8.16 nM; in the data set on MM.1S cells (Homo sapiens, MM1.S, 240 h) it was 45.3 nM.
For the molecule `CCS(=O)(=O)NC(=O)C(C)(C)c1ccc(O[C@@H]2CC[C@@H](NC(=O)[C@@]3(F)CNC4(CCCC4)C3)C2)c(-c2cccc(F)c2C2CCC2)c1` (single isomer, unassigned) [Example B20], the inhibition constant (Ki) at KAT2B (setting [2]) was 0.06 nM; on KAT2A (setting [3]), 0.05 nM. Besides, the concentration for half-maximal inhibition (IC50) amounted to 0.93 nM with H3K9AC (HT1080 cells) (setting [4]) and 1.76 nM in the data set on MM.1S cells (Homo sapiens, MM1.S, 240 h).
